Key:
[1] = biological target: Vascular endothelial growth factor receptor 1 (Homo sapiens, UniProt P17948); assay: Inhibition of vascular endothelial growth factor receptor 1
[2] = biological target: Vascular endothelial growth factor receptor 2 (Homo sapiens, UniProt P35968); assay: Inhibition of Vascular endothelial growth factor receptor 2
[3] = biological target: Hepatocyte growth factor receptor (Homo sapiens, UniProt P08581); assay: Inhibition of Met proto-oncogene tyrosine kinase
[4] = biological target: Insulin-like growth factor 1 receptor (Homo sapiens, UniProt P08069); assay: Inhibition of Insulin-like growth factor I receptor
[5] = biological target: cAMP-dependent protein kinase (PKA) (Homo sapiens, UniProt P22694+P17612+P22612); assay: Inhibition of Protein kinase A; type: protein assay
[6] = biological target: Mast/stem cell growth factor receptor Kit (Homo sapiens, UniProt P10721); assay: Inhibition of Proto-oncogene tyrosine-protein kinase Kit
[7] = biological target: Cyclin-dependent kinase 1 (Homo sapiens, UniProt P06493); assay: Inhibition of Cyclin-dependent kinase 1
Sequence of Cyclin-dependent kinase 1 (P06493 whole entry): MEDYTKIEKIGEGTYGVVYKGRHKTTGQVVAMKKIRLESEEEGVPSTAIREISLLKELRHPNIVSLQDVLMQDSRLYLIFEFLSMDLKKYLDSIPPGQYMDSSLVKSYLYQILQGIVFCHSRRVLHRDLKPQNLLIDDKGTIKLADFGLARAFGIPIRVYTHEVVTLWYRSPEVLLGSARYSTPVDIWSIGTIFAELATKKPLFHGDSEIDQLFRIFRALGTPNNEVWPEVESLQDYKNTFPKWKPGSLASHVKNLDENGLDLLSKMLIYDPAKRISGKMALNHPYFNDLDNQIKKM

Sequence of Vascular endothelial growth factor receptor 2 (P35968 whole entry): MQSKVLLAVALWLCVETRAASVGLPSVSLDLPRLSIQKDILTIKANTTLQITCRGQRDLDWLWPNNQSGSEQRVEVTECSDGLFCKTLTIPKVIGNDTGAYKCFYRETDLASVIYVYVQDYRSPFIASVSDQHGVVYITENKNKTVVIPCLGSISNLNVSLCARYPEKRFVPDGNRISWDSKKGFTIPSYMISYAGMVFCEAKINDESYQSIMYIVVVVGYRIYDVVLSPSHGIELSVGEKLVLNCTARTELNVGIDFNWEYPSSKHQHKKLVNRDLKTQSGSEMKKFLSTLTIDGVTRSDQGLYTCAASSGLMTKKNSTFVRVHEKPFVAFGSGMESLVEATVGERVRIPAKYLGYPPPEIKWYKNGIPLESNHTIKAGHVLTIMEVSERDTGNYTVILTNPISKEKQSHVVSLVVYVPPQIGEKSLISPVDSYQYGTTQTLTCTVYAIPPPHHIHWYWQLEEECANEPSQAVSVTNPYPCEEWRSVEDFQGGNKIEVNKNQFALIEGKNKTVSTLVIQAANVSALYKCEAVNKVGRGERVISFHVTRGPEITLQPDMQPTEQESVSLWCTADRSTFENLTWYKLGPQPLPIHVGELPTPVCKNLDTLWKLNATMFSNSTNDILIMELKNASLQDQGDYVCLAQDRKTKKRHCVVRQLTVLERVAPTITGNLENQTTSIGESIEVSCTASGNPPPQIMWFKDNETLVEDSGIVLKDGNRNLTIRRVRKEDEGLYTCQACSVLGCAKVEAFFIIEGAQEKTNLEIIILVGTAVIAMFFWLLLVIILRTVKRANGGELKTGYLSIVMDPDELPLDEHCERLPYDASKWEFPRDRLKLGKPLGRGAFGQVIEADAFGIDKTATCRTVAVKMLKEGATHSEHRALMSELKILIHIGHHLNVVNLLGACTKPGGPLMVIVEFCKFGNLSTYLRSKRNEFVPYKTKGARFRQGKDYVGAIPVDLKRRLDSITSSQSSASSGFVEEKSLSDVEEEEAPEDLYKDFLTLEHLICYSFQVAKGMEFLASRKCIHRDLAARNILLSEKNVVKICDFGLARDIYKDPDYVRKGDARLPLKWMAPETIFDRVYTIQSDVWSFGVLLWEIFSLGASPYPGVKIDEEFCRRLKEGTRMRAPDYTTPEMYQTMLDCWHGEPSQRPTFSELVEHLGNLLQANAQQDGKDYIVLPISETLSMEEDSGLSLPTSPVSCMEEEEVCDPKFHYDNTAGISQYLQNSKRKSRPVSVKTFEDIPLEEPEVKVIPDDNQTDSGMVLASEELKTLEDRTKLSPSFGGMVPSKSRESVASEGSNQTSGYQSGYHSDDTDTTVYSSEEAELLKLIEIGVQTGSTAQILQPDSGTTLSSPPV
Sequence of Hepatocyte growth factor receptor (P08581 whole entry): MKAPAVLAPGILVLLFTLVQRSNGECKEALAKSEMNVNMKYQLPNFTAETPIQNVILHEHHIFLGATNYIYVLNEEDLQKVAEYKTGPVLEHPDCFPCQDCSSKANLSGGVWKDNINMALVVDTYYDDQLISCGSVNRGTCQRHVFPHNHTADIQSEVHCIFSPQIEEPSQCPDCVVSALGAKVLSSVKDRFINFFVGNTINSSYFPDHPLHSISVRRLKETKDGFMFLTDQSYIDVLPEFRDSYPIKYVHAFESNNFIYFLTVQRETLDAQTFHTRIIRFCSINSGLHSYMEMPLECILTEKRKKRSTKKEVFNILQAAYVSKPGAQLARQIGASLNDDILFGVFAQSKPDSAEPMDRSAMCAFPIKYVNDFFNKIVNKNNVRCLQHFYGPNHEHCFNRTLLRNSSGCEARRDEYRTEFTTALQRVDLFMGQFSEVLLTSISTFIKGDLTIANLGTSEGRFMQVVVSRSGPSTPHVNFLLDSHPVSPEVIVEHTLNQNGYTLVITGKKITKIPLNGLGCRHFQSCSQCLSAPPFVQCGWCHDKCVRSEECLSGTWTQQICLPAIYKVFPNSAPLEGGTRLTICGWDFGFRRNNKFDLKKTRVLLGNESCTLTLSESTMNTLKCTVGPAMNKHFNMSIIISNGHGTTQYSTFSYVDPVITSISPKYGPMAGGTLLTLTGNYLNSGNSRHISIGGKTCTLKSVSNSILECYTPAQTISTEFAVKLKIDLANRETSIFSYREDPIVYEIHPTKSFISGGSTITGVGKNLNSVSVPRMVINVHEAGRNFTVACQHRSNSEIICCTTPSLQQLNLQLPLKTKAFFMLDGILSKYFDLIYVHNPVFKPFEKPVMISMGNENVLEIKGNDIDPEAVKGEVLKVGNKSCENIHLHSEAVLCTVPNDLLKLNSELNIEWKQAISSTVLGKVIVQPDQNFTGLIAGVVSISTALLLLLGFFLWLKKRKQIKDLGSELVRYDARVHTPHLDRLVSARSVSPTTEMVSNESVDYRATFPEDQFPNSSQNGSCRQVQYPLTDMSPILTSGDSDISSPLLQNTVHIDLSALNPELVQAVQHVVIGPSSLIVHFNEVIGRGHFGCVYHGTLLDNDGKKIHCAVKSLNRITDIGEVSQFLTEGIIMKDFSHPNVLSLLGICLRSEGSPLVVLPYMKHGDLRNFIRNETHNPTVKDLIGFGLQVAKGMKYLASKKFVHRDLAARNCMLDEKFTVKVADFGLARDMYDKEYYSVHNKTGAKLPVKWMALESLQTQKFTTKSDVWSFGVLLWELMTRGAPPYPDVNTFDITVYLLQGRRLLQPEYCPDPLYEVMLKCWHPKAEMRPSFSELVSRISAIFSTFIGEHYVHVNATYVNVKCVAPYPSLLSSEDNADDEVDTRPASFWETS
Sequence of Vascular endothelial growth factor receptor 1 (P17948 whole entry): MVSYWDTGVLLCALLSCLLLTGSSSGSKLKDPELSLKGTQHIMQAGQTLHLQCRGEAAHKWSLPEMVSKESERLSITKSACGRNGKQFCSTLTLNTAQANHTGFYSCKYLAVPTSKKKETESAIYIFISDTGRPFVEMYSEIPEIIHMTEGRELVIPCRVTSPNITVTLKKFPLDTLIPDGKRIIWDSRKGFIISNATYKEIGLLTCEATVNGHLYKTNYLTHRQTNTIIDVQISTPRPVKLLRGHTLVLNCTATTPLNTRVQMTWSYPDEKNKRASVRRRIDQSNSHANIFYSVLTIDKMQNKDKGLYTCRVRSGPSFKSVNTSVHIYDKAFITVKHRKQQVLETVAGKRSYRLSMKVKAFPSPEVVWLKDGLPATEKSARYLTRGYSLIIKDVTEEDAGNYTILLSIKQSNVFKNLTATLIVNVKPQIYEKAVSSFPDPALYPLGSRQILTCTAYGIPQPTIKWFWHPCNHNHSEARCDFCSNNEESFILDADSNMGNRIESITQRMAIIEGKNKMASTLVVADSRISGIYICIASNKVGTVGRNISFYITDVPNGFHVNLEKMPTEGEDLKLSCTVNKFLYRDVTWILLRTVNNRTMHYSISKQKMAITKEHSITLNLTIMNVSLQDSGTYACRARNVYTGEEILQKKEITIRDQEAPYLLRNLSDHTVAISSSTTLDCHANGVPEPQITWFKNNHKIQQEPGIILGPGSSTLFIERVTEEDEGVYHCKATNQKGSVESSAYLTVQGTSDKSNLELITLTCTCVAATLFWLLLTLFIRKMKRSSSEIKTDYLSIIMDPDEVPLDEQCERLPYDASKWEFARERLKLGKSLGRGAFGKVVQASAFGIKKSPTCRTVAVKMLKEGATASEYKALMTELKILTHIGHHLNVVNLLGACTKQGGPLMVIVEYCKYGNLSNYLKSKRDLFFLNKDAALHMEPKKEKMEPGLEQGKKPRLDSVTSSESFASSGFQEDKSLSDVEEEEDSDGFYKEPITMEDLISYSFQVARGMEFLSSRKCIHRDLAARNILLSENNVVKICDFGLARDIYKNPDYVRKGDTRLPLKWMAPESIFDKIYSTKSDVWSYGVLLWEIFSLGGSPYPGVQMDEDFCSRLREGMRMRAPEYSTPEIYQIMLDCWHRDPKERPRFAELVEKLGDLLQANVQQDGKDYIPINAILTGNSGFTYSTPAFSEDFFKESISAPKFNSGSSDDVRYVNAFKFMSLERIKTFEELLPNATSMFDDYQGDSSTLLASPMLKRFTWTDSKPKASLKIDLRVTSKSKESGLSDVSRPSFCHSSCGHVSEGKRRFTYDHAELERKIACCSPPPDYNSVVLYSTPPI

Row | IC50 [1] [µM] | IC50 [2] [µM] | IC50 [3] [µM] | IC50 [4] [µM] | IC50 [5] [µM] | IC50 [6] [µM] | IC50 [7] [µM] | Compound
1 | 23 | 3.7 |  |  |  |  |  | O=C(Nc1ccccc1F)c1ccccc1NCc1ccc(F)cc1
2 |  | 0.02 | > 10 | > 10 | > 10 | 0.24 | > 10 | O=C(Nc1ccc(Cl)cc1)c1ccccc1NCc1ccncc1

From ChEMBL document CHEMBL1136193, “Identification of a new chemical class of potent angiogenesis inhibitors based on conformational considerations and database searching” (Bioorg Med Chem Lett, 2003)
